Experimental data published in ChEMBL document CHEMBL1128949, “Novel tricyclic aminoacetyl and sulfonamide inhibitors of Ras farnesyl protein transferase” (Bioorg Med Chem Lett, 1996).

Tests used:
[1] = molecular target: T1, Protein farnesyltransferase (Homo sapiens, UniProt P49354+P49356); experiment: Inhibitory activity against Protein farnesyltransferase (Inactive); format: protein-complex assay
[2] = molecular target: T1, Protein farnesyltransferase; experiment: Inhibitory activity against protein farnesyltransferase.; format: protein-complex assay

Row | SMILES | IC50 [1] | IC50 [2]
1 | CCCCCCCCCCCS(=O)(=O)N1CCC(=C2c3ccc(Cl)cc3CCc3cccnc32)CC1 | Not Active | –
2 | CCCCCCCCS(=O)(=O)N1CCC(=C2c3ccc(Cl)cc3CCc3cccnc32)CC1 | – | > 12 µM
3 | CN(C)S(=O)(=O)N1CCC(=C2c3ccc(Cl)cc3CCc3cccnc32)CC1 | – | 1.9 µM
4 | CS(=O)(=O)N1CCC(=C2c3ccc(Cl)cc3CCc3cccnc32)CC1 | – | 1.9 µM
5 | O=C(Cc1ccccc1)NCC(=O)N1CCC(=C2c3ccc(Cl)cc3CCc3cccnc32)CC1 | – | 8.4 µM
6 | CC(C)(C)OC(=O)NCC(=O)N1CCC(=C2c3ccc(Cl)cc3CCc3cccnc32)CC1 | – | 6.8 µM
7 | O=C([C@@H](Cc1ccccc1)N1C(=O)c2ccccc2C1=O)N1CCC(=C2c3ccc(Cl)cc3CCc3cccnc32)CC1 | – | > 10 µM
8 | O=C(NCC(=O)N1CCC(=C2c3ccc(Cl)cc3CCc3cccnc32)CC1)c1ccccc1 | – | 8.8 µM
9 | CC1(C)C2CCC1(CS(=O)(=O)N1CCC(=C3c4ccc(Cl)cc4CCc4cccnc43)CC1)C(=O)C2 (centres undefined) | – | 11.4 µM
10 | NCC(=O)N1CCC(=C2c3ccc(Cl)cc3CCc3cccnc32)CC1 | – | 22.3 µM
11 | CSCC[C@H](C(=O)N1CCC(=C2c3ccc(Cl)cc3CCc3cccnc32)CC1)N1C(=O)c2ccccc2C1=O | – | 4.7 µM
12 | CC1(C)C2CCC1(CS(=O)(=O)N1CCC(=C3c4ccc(Cl)cc4CCc4cccnc43)CC1)C(O)C2 (centres undefined) | – | 8.2 µM
13 | O=C(CNC(c1ccccc1)(c1ccccc1)c1ccccc1)N1CCC(=C2c3ccc(Cl)cc3CCc3cccnc32)CC1 | – | > 10 µM
14 | COc1ccc(CSC[C@@H](NC(=O)OC(C)(C)C)C(=O)N2CCC(=C3c4ccc(Cl)cc4CCc4cccnc43)CC2)cc1 | – | 3.05 µM
15 | O=S(=O)(c1cccs1)N1CCC(=C2c3ccc(Cl)cc3CCc3cccnc32)CC1 | – | 13 µM
16 | CC(C)C[C@H](C(=O)N1CCC(=C2c3ccc(Cl)cc3CCc3cccnc32)CC1)N1C(=O)c2ccccc2C1=O | – | > 10 µM
17 | O=S(=O)(Cc1ccccc1)N1CCC(=C2c3ccc(Cl)cc3CCc3cccnc32)CC1 | – | 1 µM

Row | SMILES | IC50 [1] | IC50 [2]
18 | COC(=O)c1ccccc1S(=O)(=O)N1CCC(=C2c3ccc(Cl)cc3CCc3cccnc32)CC1 | – | 10.6 µM
19 | O=C([C@@H](Cc1c[nH]cn1)N1C(=O)c2ccccc2C1=O)N1CCC(=C2c3ccc(Cl)cc3CCc3cccnc32)CC1 | – | 3.6 µM
20 | CCCCCCCCCCS(=O)(=O)N1CCC(=C2c3ccc(Cl)cc3CCc3cccnc32)CC1 | Not Active | –
21 | O=C(CNCc1ccccc1)N1CCC(=C2c3ccc(Cl)cc3CCc3cccnc32)CC1 | – | 9.6 µM
22 | O=C(CC[C@H](C(=O)N1CCC(=C2c3ccc(Cl)cc3CCc3cccnc32)CC1)N1C(=O)c2ccccc2C1=O)Nc1ccccc1 | – | 4.8 µM
23 | CCS(=O)(=O)N1CCC(=C2c3ccc(Cl)cc3CCc3cccnc32)CC1 | – | 5.2 µM
24 | O=C(NCC(=O)N1CCC(=C2c3ccc(Cl)cc3CCc3cccnc32)CC1)OCc1ccccc1 | – | 8.5 µM
25 | C=CS(=O)(=O)N1CCC(=C2c3ccc(Cl)cc3CCc3cccnc32)CC1 | – | 1 µM
26 | C[C@H](C(=O)N1CCC(=C2c3ccc(Cl)cc3CCc3cccnc32)CC1)N1C(=O)c2ccccc2C1=O | – | 4.6 µM
27 | O=[N+]([O-])c1ccc(S(=O)(=O)N2CCC(=C3c4ccc(Cl)cc4CCc4cccnc43)CC2)cc1 | – | > 12 µM
28 | COc1ccc(CSC[C@@H](N)C(=O)N2CCC(=C3c4ccc(Cl)cc4CCc4cccnc43)CC2)cc1 | – | 6.29 µM
29 | CCCCS(=O)(=O)N1CCC(=C2c3ccc(Cl)cc3CCc3cccnc32)CC1 | – | 4.8 µM
30 | O=C(CN1C(=O)c2ccccc2S1(=O)=O)N1CCC(=C2c3ccc(Cl)cc3CCc3cccnc32)CC1 | – | 2 µM
31 | O=C(CN1C(=O)c2ccccc2C1=O)N1CCC(=C2c3ccc(Cl)cc3CCc3cccnc32)CC1 | – | 0.66 µM
32 | O=C(N[C@H](Cc1ccc(O)cc1)C(=O)N1CCC(=C2c3ccc(Cl)cc3CCc3cccnc32)CC1)OCc1ccccc1 | – | 1.2 µM
33 | O=C(O)c1ccccc1S(=O)(=O)N1CCC(=C2c3ccc(Cl)cc3CCc3cccnc32)CC1 | – | > 11 µM
34 | O=S(=O)(c1ccc2ccccc2c1)N1CCC(=C2c3ccc(Cl)cc3CCc3cccnc32)CC1 | – | > 12 µM
